What is called IC50 is the concentration at which inhibition is half-maximal. In general, % Inhibition refers to the percentage by which the read-out fell short of the control. In general, inhibition refers to the percentage by which the read-out fell short of the control. What is called CC50 is the concentration giving 50% cytotoxicity. A higher CC50 goes with lower toxicity to the cells.

One data set concerns mammalian cathepsin S. More on the design: method as in PMID 28215783, PMID 32116030. The settings on record: cited from earlier work.
For another data set, the system named is mammalian cathepsin B. More on the design: method as in PMID 28215783, PMID 32116030. The settings on record: cited from earlier work.
For the next data set, the system named is cruzain. The settings on record: cited from earlier work.
The subject of data set [1] is T. cruzi Tulahuen strain (amastigotes and trypomastigotes). The data set can be described thus: Anti-T. cruzi activity assay (amastigotes and trypomastigotes) in infected L929 cells, beta-galactosidase reporter. Type of data set: cell-based, Trypanosoma cruzi. As to conditions: 96 h exposure. The protocol:
Anti-T. cruzi activity assay (amastigotes and trypomastigotes) - The in vitro anti-T. cruzi activity was evaluated on L929 cells (mouse fibroblasts) infected with Tulahuen strain of the parasite expressing the Escherichia coli β-galactosidase as reporter gene according to the method described previously.[49] Briefly, for the bioassay, 4,000 L929 cells were added to each well of a 96-well microtiter plate. After an overnight incubation, 40,000 trypomastigotes were added to the cells and incubated for 2 h. Then the medium containing extracellular parasites was replaced with 200 μL of fresh medium and the plate was incubated for an additional 48 h to establish the infection. For IC50 determination, the cells were exposed to each synthesized compound at serial decreasing dilutions and the plate was incubated for 96 h. After this period, 50 μL of 500 μM chlorophenol red beta-D-galactopyranoside (CPRG) in 0.5% Nonidet P40 was added to each well, and the plate was incubated for 16 to 20 h, after which the absorbance at 570 nm was measured. Controls with uninfected cells, untreated infected cells, infected cells treated with benznidazole at 3.8 μM (positive control) or DMSO 1% were used. The results were expressed as the percentage of T. cruzi growth inhibition in compound tested cells as compared to the infected cells and untreated cells. The IC50 values were calculated by linear interpolation. Quadruplicates were run in the same plate, and the experiments were repeated at least once.
(§1) IC50 over T. cruzi and L929 cells were determined by linear interpolation and the selectivity index (SI) was calculated by the ratio of CC50 L929 cells/ IC50 T. cruzi.

Another data set has as its target T1, Recombinant cruzain (Trypanosoma cruzi, UniProt P25779).
T1 construct: gift: Allison Doak and Prof Brian Shoichet (University of California San Francisco)
The data set can be described thus: Cruzain inhibition, cleavage of fluorogenic substrate Z-FR-AMC. The class given is biochemical. As to conditions: for inhibition at 23 µM: compound at 23 µM. The protocol:
(§2) Assays against cruzain and TbrCATL - Recombinant cruzain and TbrCatL were generously provided by Allison Doak and Prof Brian Shoichet (University of California San Francisco, San Francisco, CA, USA) and Prof Conor Caffrey (University of California San Diego, San Diego, CA, USA), respectively. Enzyme activity was measured by monitoring the cleavage of the fluorogenic substrate Z-Phe-Arg-amidomethylcoumarin (Z-FR-AMC) at 25 °C. Fluorescence was monitored at 340/440 nm (excitation/emission) in a Biotec 87 Synergy 2 fluorimeter. Assays were conducted in 96-well flat bottom black plates in 0.1 M sodium acetate buffer, pH 5.5, 10 mM β-mercaptoethanol, 0.01% Triton X-100, […] enzyme and 2.5 µM substrate. DMSO and 1 µM E-64 were employed as negative and positive controls, respectively, in all assays. Assays were performed in triplicate, and enzyme activity was measured for 5 min. Reported values correspond to the mean and standard error of the mean (SEM).
(§3) Compounds were initially screened at a concentration of 100 µM against cruzain with and without a 10 min pre-incubation with the enzyme. […] IC50 values were determined from two independent experiments, each with seven compounds concentrations in triplicate. Dose-response curves were built by non-linear regression with Graph Pad Prism 6.
To evaluate the effects of Triton X-100 concentration on enzyme inhibition, assays were conducted using 0.1%, 0.01% and 0% Triton X-100. To access the impact of pre-incubation of bovine serum albumin (BSA) on enzyme inhibition, compounds were incubated with BSA (4 mg/mL, for a final assay concentration of 1 mg/mL) for 10’ followed by 10’ incubation with 2 nM enzyme. Finally, Z-FR-AMC was added to each well and the fluorescence was immediately read.

For the next data set, the target named is T2, Recombinant TbrCatL (Trypanosoma brucei rhodesiense, UniProt Q95PM0).
T2 construct: gift: Prof Conor Caffrey (University of California San Diego)
T2 sequence (Q95PM0 entry or part of it): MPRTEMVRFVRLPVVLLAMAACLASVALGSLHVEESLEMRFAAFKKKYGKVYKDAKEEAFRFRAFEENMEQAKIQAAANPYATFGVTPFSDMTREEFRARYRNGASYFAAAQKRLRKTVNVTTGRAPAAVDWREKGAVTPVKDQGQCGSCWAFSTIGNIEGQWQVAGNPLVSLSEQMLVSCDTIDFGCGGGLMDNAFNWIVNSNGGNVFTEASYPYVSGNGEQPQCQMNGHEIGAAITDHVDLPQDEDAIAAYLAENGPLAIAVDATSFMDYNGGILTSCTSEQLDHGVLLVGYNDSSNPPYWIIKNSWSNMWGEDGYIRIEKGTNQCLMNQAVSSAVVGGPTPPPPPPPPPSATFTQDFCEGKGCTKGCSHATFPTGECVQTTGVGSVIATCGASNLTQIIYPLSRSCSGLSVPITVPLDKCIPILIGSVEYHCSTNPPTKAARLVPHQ
The data set can be described thus: TbrCatL inhibition, cleavage of fluorogenic substrate Z-FR-AMC. Type of data set: biochemical, T. brucei. The protocol:
as §2, §3

Data set [2] deals with L929 cells (mouse fibroblasts). The data set can be described thus: In vitro cytotoxicity over L929 cell line (alamarBlue). Type of data set: cell-based. As to conditions: ratio CC50 L929 / IC50 T. cruzi. The protocol: (§4) In vitro cytotoxic activity test of compounds and CC 50 determination over L929 cell line - For this bioassay, 4,000 L929 cells in 200 μL of RPMI-1640 medium (pH 7.2-7.4) (Gibco BRL) plus 10% foetal bovine serum and 2 mM glutamine were added to each well of a 96-well microtiter plate that was incubated for three days at 37 °C. The medium was then replaced, and the cells were exposed to compounds at increasing concentrations starting at IC50 value for T. cruzi. After 96 h of incubation with the compounds the alamarBlueTM was added and the absorbance at 570 and 600 nm was measured after 4-6 h. Controls with untreated and DMSO 1%-treated cells were run in parallel. The results were expressed as the percent difference in the reduction between treated and untreated cells. The compound concentration that inhibits 50% of the L929 cell viability (CC50) was determined. Quadruplicates were run in the same plate and the experiments were repeated at least once.
as §1

Assay in data set [3]: as above
Type of data set: cell-based, mouse. As to conditions: mouse, L929 cells (mouse fibroblasts); uninfected L929 cells; 96 h incubation. As to the method:
as §4, §1

The mark [4] stands for this setting: 100 µM compound, 10 min pre-incubation with enzyme, 0.01% Triton X-100, read-out: % Inhibition at 100 µM (Mean ± SEM) Cruzain 10' pre-incubation.
Where [5] appears, read: 100 µM compound, no pre-incubation, 0.01% Triton X-100, read-out: % Inhibition at 100 µM (Mean ± SEM) Cruzain No pre-incubation.
Where [6] appears, read: 100 µM compound, 10 min pre-incubation with enzyme, read-out: % Inhibition at 100 µM (Mean ± SEM) TbrCATL 10' pre-incubation.

Where two headings read alike, the source gives them in different places. A value given as a limit tells only on which side of the number the result lay.

T1 sequence (P25779 123-467): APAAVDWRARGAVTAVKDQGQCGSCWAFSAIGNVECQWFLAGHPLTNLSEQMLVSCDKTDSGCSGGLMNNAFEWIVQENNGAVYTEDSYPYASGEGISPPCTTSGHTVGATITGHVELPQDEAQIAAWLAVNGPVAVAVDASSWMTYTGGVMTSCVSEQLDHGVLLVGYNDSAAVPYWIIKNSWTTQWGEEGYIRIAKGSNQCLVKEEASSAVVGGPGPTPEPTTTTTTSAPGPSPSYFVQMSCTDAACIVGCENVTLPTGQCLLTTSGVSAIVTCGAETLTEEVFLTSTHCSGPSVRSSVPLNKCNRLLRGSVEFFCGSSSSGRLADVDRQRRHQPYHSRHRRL

Take `CC(C)(CN)CNc1ccnc2cc(Cl)ccc12` [Compound 3]: in the data set with mammalian cathepsin S, the “Inhibition of mammalian cathepsin S” value is reported as “did not inhibit”. The “Inhibition of mammalian cathepsin B” value in the data set on mammalian cathepsin B is “did not inhibit”.

In the case of `Clc1ccc2[nH]c3c(NCCCN4CCOCC4)ncnc3c2c1` [Compound 1], in the data set on cruzain (hit from HTS), the IC50 was 2.5 µM. For the same molecule, the Ki at cruzain (non-covalent competitive inhibitor from HTS) was 2 µM.

For the molecule “N-butyl-7-chloroquinolin-4-amine [Compound 6]”, the IC50 in data set [1] came out at 150 µM. In addition, at Recombinant cruzain (100 µM compound, 10 min pre-incubation with enzyme, 0.01% Triton X-100), the “% Inhibition at 100 µM (Mean ± SEM) Cruzain 10' pre-incubation” value is on record as 35 ± 1%. In addition, on Recombinant cruzain (100 µM compound, no pre-incubation, 0.01% Triton X-100), the “% Inhibition at 100 µM (Mean ± SEM) Cruzain No pre-incubation” value was 35 ± 1%. In addition, the “% Inhibition at 100 µM (Mean ± SEM) TbrCATL 10' pre-incubation” value at Recombinant TbrCatL (100 µM compound, 10 min pre-incubation with enzyme) was 42 ± 4%.

`O=C(Cn1ccnc1[N+](=O)[O-])NCc1ccccc1` [Benznidazole, reference compound] came in with an IC50 in data set [1] (Trypanosoma cruzi) of 3.8 ± 0.8 µM. Moreover, the “SI (selectivity index), CC50 L929 cells / IC50 T. cruzi” value in data set [2] is listed as 626.

For `Clc1ccc2c(NCCCN3CCOCC3)ccnc2c1` [Compound 2], the “Inhibition of mammalian cathepsin S” value with mammalian cathepsin S was “did not inhibit”. Besides, the “Inhibition of mammalian cathepsin B” value with mammalian cathepsin B is listed as “did not inhibit”.

`Clc1ccc2c(NCc3ccco3)ccnc2c1` [Compound 5, 7-chloro-N-(furan-2-ylmethyl)quinolin-4-amine]: the half-inhibitory concentration (IC50) in data set [1] (Trypanosoma cruzi) stood at 143 µM; at Recombinant cruzain (two independent experiments, seven concentrations in triplicate, read-out: IC50 against cruzain) it was 23 µM; at Recombinant TbrCatL (two independent experiments, seven concentrations in triplicate, read-out: IC50 against TbrCatL), 29 µM. For the same molecule, the inhibition at 100 µM on Recombinant cruzain (setting [4]) came out at 99 ± 1%; on Recombinant cruzain (setting [5]) it was 93 ± 1%; on Recombinant TbrCatL (setting [6]), 94 ± 1%; at Recombinant TbrCatL (100 µM compound, no pre-incubation, read-out: % Inhibition at 100 µM (Mean ± SEM) TbrCATL No pre-incubation), 87 ± 3%. Also, the inhibition at 23 µM came out at 28.4 ± 2% on Recombinant cruzain (0.01% Triton X-100, read-out: % Inhibition of cruzain (Mean ± SEM) Triton 0.01%); 28.4 ± 3% on Recombinant cruzain (0.1% Triton X-100, read-out: % Inhibition of cruzain (Mean ± SEM) Triton 0.1%); 100 ± 1% on Recombinant cruzain (no Triton X-100, read-out: % Inhibition of cruzain (Mean ± SEM) Triton 0%); 32.2 ± 1% at Recombinant cruzain (pre-incubation with BSA (final 1 mg/mL), no Triton X-100, read-out: % Inhibition of cruzain (Mean ± SEM) BSA + Triton 0%).

For `Clc1ccc2c(NC3CCCCC3)ccnc2c1` [Compound 4, 7-chloro-N-cyclohexylquinolin-4-amine], the IC50 in data set [1] (Trypanosoma cruzi) turned out to be 2.57 ± 0.11 µM. Besides, the inhibition at 100 µM on Recombinant cruzain (setting [4]) amounted to 18 ± 2%; at Recombinant cruzain (setting [5]), 19 ± 1%; at Recombinant TbrCatL (setting [6]), 38 ± 4%. Besides, in data set [3], the half-maximal cytotoxic concentration (CC50) at 96 h is below 2.3 µM.
